Consider five molecules from patent publication US20180049457A1, “ENZYMATIC SYNTHESIS OF SOLUBLE GLUCAN FIBER” (E I DU PONT DE NEMOURS AND COMPANY, priority 2014, published 2018).

For one test, the system named is intestinal microbiota. In words: In vitro gas production by intestinal microbiota (pre-conditioned faecal slurry). Type of test: cell-based. As to the method: To measure the formation of gas by the intestinal microbiota, a pre-conditioned faecal slurry was incubated with test prebiotic (oligosaccharide or polysaccharide soluble fibers) and the volume of gas formed was measured. Fresh faecal material was pre-conditioned by dilution with 3 parts (w/v) of anaerobic simulator medium, stirring for 1 h under anaerobic conditions and filtering through 0.3-mm metal mesh after which it was incubated anaerobically for 24 h at 37° C.
The simulator medium used was composed as described by G. T. Macfarlane et al. (Microb. Ecol. 35(2):180-7 (1998)) containing the following constituents (g/L) in distilled water: starch (BDH Ltd.), 5.0; peptone, 0.05; tryptone, 5.0; yeast extract, 5.0; NaCl, 4.5; KCl, 4.5; mucin (porcine gastric type III), 4.0; casein (BDH Ltd.), 3.0; pectin (citrus), 2.0; xylan (oatspelt), 2.0; arabinogalactan (larch wood), 2.0; NaHCO3, 1.5; MgSO4, 1.25; guar gum, 1.0; inulin, 1.0; cysteine, 0.8; KH2PO4, 0.5; K2HPO4, 0.5; bile salts No. 3, 0.4; CaCl2×6 H2O, 0.15; FeSO4×7 H2O, 0.005; hemin, 0.05; and Tween 80, 1.0; cysteine hydrochloride, 6.3; Na2S×9 H2O, and 0.1% resazurin as an indication of sustained anaerobic conditions. The simulation medium was filtered through 0.3 mm metal mesh and divided into sealed serum bottles.
Test prebiotics were added from 10% (w/w) stock solutions to a final concentration of 1%. The incubation was performed at 37° C. while maintaining anaerobic conditions. Gas production due to microbial activity was measured manually after 24 h incubation using a scaled, airtight glass syringe, thereby also releasing the overpressure from the simulation unit.
Solutions of chromatographically-purified soluble oligosaccharide/polysaccharide fibers were dried to a constant weight by lyophilization. The individual soluble oligosaccharide/polysaccharide soluble fiber samples were subsequently evaluated as carbon source for in vitro gas production using the method described in the General Methods. PROMITOR® 85 (soluble corn fiber, Tate & Lyle), NUTRIOSE® FM06 (soluble corn fiber or dextrin, Roquette), FIBERSOL-2® 600F (digestion-resistant maltodextrin, Archer Daniels Midland Company & Matsutani Chemical), ORAFTI® GR (inulin from Beneo, Mannheim, Germany), LITESSE® Ultra™ (polydextrose, Danisco), GOS (galactooligosaccharide, Clasado Inc., Reading, UK), ORAFTI® P95 (oligofructose (fructo-oligosaccharide, FOS, Beneo), LACTITOL MC (4-O-β-D-Galactopyranosyl-D-glucitol monohydrate, Danisco) and glucose were included as control carbon sources. Table 61 lists the In vitro gas production by intestinal microbiota at 3 h and 24 h. Table 62 lists the in vitro gas production by intestinal microbiota from controls and the sequences identified from the GTF0459 homolog sequence search. Table 63 lists the in vitro gas production by intestinal microbiota from controls and truncations of homolog sequences identified from the GTF0459 homolog sequence search.

Another test relates to human faecal microbiota. In words: Colonic fermentation modeling (semi-continuous colon simulator) and measurement of fatty acids. Type of test: cell-based. Conditions: test component 1% in ileal fluid, 48 h. From the text:
Colonic fermentation was modeled using a semi-continuous colon simulator as described by Makivuokko et al. (Nutri. Cancer (2005) 52(1):94-104); in short; a colon simulator consists of four glass vessels which contain a simulated ileal fluid as described by Macfarlane et al. (Microb. Ecol. (1998) 35(2):180-187). The simulator is inoculated with a fresh human faecal microbiota and fed every third hour with new ileal liquid and part of the contents is transferred from one vessel to the next. The ileal fluid contains one of the described test components at a concentration of 1%. The simulation lasts for 48 h after which the content of the four vessels is harvested for further analysis. The further analysis involves the determination of microbial metabolites such as short chain fatty acids (SCFA); also referred to as volatile fatty acids (VFA) and branched chain fatty acids (BCFA). Analysis was performed as described by Holben et al. (Microb. Ecol. (2002) 44:175-185); in short; simulator content was centrifuged and the supernatant was used for SCFA and BCFA analysis. Pivalic acid (internal standard) and water were mixed with the supernatant and centrifuged. After centrifugation, oxalic acid solution was added to the supernatant and then the mixture was incubated at 4° C., and then centrifuged again. The resulting supernatant was analyzed by gas chromatography using a flame ionization detector and helium as the carrier gas. Comparative data generated from samples of LITESSE® ULTRA™ (polydextrose, Danisco), ORAFTI® P95 (oligofructose; fructo-oligosaccharide, “FOS”, Beneo), lactitol (Lactitol MC (4-O-β-D-galactopyranosyl-D-glucitol monohydrate, Danisco), and a negative control is also provided. The concentration of acetic, propionic, butyric, isobutyric, valeric, isovaleric, 2-methylbutyric, and lactic acid was determined (Table 64).

Test [1] is described as follows: GTF activity of strains (PAHBAH assay). Type of test: biochemical. The settings on record: enzyme expressed in B. subtilis host. Summed up:
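Glucosyltransferase (GTF) activity of the bacterial strains was measured with the PAHBAH assay. The enzymes tested were truncated GTF variants produced in a Bacillus subtilis expression host. Measurements were split across three separate experiments, and each activity value is reported together with the experiment it came from because results varied slightly between experiments.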

In the case of `O.OC[C@@H](O)[C@@H](O[C@@H]1O[C@H](CO)[C@H](O)[C@H](O)[C@H]1O)[C@H](O)[C@@H](O)CO` [LACTITOL ® MC], the “mL gas formation in 3 h” value in the test with intestinal microbiota (Table 61) is listed as 2.0 mL; in the test with intestinal microbiota (Table 62) it was 2.0 mL; in the test with intestinal microbiota (Table 63), 3.0 mL. Besides, the “mL gas formation in 24 h” value in the test with intestinal microbiota (24 h, Table 61) was found to be 4.8 mL. In addition, the “mL gas formation in 24.5 h” value with intestinal microbiota (Table 62) stood at 1.5 mL; in the test on intestinal microbiota (Table 63), 2.0 mL.
In the case of `O.OC[C@@H](O)[C@@H](O[C@@H]1O[C@H](CO)[C@H](O)[C@H](O)[C@H]1O)[C@H](O)[C@@H](O)CO` [LACTITOL MC, 4-O-β-D-Galactopyranosyl-D-glucitol monohydrate], in the test on human faecal microbiota, the Acetic is given as 318 mM, the “Branched Chain Fatty Acids (BCFA)” value was 7.5 mM, the Butyric was 94 mM and the Lactic is listed as 52 mM. Moreover, in the test on human faecal microbiota, the Propionic was 42 mM and the “Short Chain Fatty Acids (SCFA)” value is listed as 506 mM.

B1: GTF4991T2: T2 C-terminal truncation of GTF4991, SEQ ID NO: 150, strain SG1311 (protein)
chain: INGKQYYVNSDGSVRKNFVFEQDGKSYYFDAETGALATKSQDEFSTEPIKATVDFSSGNQLYKNDDKSLDQLDTFITADAWYRPKSILKDGKTWTASTEADKRPLLMVWWPDKSTQVNYLNYMQNQGLGAGSFSTNSSQESLDQAAKAVQTKIEERIAREGNTNWLRTSIDQFIKTQPGWNSSTENSSYDHLQGGQLLFNNSKGDTGNRTSHANSDYRLLNRTPTNQTGTRKYFKDNSIGGLEFLLANDIDNSNPAVQAEQLNWLHFMMNIGSIMANDPTANFDGLRVDALDNVDADLLQIASDYFKAAYGVDKSEANAIKHLSYLEAWSANDPYYNKDTKGAQLPIDNALRNALTNLLMRDKNTRMQLGDMTAFINSSLNPRGANDKNGERMANYIFTRAHDTEAQTIIQRIIRDRINPNLFGYNFTRDEIKKAFEIYNEDIDKAHKTYASYNLPSVYALMLTNKDSVTRVYYGDLYREDGHYMAKKTPYFDAIDTLLRARIKYVAGGQDMEVKKVGNDGLLTSVRYGKGANNRTDLGTSETRTQGMGVIMTNNYDFRLGSNETVTMNMGRAHRNQLYRPLLLTTKDGIATYLNDSDVPKNLLKRTDWNGNLTFNANDVFGVENVQVSGYLGVWVPYGAKANQDARTQPSNRANSDGQVYKSSAALDSQVMYEAFSNFQAFADDQPELYMNRVLAKNTDLLKAWGITSVGLPPQYVSSKDGTFLDSIIDNGYAFDDRYDMALSQNNKYGSLEDLLNVLRALHKDGIQAIADWVPDQIYNLPGKEVVNATRVNGYGYHQQGYQIVDQAYVANTRTDGTDYQGKYGGAFLDELKAKYPSIFNRVQISNGKQLPTNEKITKWSAKYFNGTNILGRGINFVLRDDKTNQYFNTSANSQLLPTPLRDTGAITSTQVFQRRGQDVYFLRDNQTVKNEFVQDGNGNWYYFGGDG
modifications: T2 C-terminal truncation of GTF4491
As to B1, the “GTF activity of strains: Acitivity” value in test [1] (Experiment Number 1) was 4.9 U/mL.

B2: GTF4991T6: T6 C-terminal truncation of GTF4991, SEQ ID NO: 152, strain SG1312 (protein)
chain: INGKQYYVNSDGSVRKNFVFEQDGKSYYFDAETGALATKSQDEFSTEPIKATVDFSSGNQLYKNDDKSLDQLDTFITADAWYRPKSILKDGKTWTASTEADKRPLLMVWWPDKSTQVNYLNYMQNQGLGAGSFSTNSSQESLDQAAKAVQTKIEERIAREGNTNWLRTSIDQFIKTQPGWNSSTENSSYDHLQGGQLLFNNSKGDTGNRTSHANSDYRLLNRTPTNQTGTRKYFKDNSIGGLEFLLANDIDNSNPAVQAEQLNWLHFMMNIGSIMANDPTANFDGLRVDALDNVDADLLQIASDYFKAAYGVDKSEANAIKHLSYLEAWSANDPYYNKDTKGAQLPIDNALRNALTNLLMRDKNTRMQLGDMTAFINSSLNPRGANDKNGERMANYIFTRAHDTEAQTIIQRIIRDRINPNLFGYNFTRDEIKKAFEIYNEDIDKAHKTYASYNLPSVYALMLTNKDSVTRVYYGDLYREDGHYMAKKTPYFDAIDTLLRARIKYVAGGQDMEVKKVGNDGLLTSVRYGKGANNRTDLGTSETRTQGMGVIMTNNYDFRLGSNETVTMNMGRAHRNQLYRPLLLTTKDGIATYLNDSDVPKNLLKRTDWNGNLTFNANDVFGVENVQVSGYLGVWVPYGAKANQDARTQPSNRANSDGQVYKSSAALDSQVMYEAFSNFQAFADDQPELYMNRVLAKNTDLLKAWGITSVGLPPQYVSSKDGTFLDSIIDNGYAFDDRYDMALSQNNKYGSLEDLLNVLRALHKDGIQAIADWVPDQIYNLPGKEVVNATRVNGYGYHQQGYQIVDQAYVANTRTDGTDYQGKYGGAFLDELKAKYPSIFNRVQISNGKQLPTNEKITKWSAKYFNGTNILGRGINFVLRDDKTNQYFNTSANSQLLPTPLRDTGAITSTQVFQRRGQDVYFLRDNQTVKNEFVQDGNGNWYYFGGDGKMTKGAQNINSKDYYFFDNGVQLRNALRRASNGYTYYYGLDGAMVKNAFVDFDDKHKQVRAFTTQG
modifications: T6 C-terminal truncation of GTF4491
For the molecule B2, the “GTF activity of strains: Acitivity” value in test [1] (Experiment Number 1) was 1.7 U/mL.

B3: GTF0974T4: T4 C-terminal truncation of GTF0974 glucosyltransferase, SEQ ID NO: 128, strain SG1316 (protein)
chain: INGKQYYVNSDGSVRKNFVFEQDGKSYYFDAETGALATKSQDEFSTEPIKATVDFSSGNQLYKNDDKSLDQLDTFITADAWYRPKSILKDGKTWTASTEADKRPLLMVWWPDKSTQVNYLNYMQNQGLGAGSFSTNSSQESLDQAAKAVQTKIEERIAREGNTNWLRTSIDQFIKTQPGWNSSTENSSYDHLQGGQLLFNNSKGDTGNRTSHANSDYRLLNRTPTNQTGTRKYFKDNSIGGLEFLLANDIDNSNPAVQAEQLNWLHFMMNIGSIMANDPTANFDGLRVDALDNVDADLLQIASDYFKAAYGVDKSEANAIKHLSYLEAWSANDPYYNKDTKGAQLPIDNALRNALTNLLMRDKNTRMQLGDMTAFINSSLNPRGANDKNGERMANYIFTRAHDTEAQTIIQRIIRDRINPNLFGYNFTRDEIKKAFEIYNEDIDKAHKTYASYNLPSVYALMLTNKDSVTRVYYGDLYREDGHYMAKKTPYFDAIDTLLRARIKYVAGGQDMEVKKVGNDGLLTSVRYGKGANNRTDLGTSETRTQGMGVIMTNNYDFRLGSNETVTMNMGRAHRNQLYRPLLLTTKDGIATYLNDSDVPKKLLKRTDWNGNLTFNANDVFGVENVQVSGYLGVWVPYGAKANQDARTQPSNRANSDGQVYKSSAALDSQVMYEAFSNFQAFADDQPELYMNRVLAKNTDLLKAWGITSVGLPPQYVSSKDGTFLDSTIDNGYAFDDRYDMALSQNNKYGSLEDLLNVLRALHKDGIQAIADWVPDQIYNLPGKEVVNATRVNGYGNHQVGYQIIDQAYVANTRTDGTDYQGKYGGAFLDELKAKYPSIFNRVQISNGKQLPTNEKITKWSAKYFNGTNILGRGINYVLRDDKTNQYFNTSANSQLLPTPLRDTGAITSTQVFQRRGQDVYFLRDNQAVKNEFVQDGNGNWYYFGGDGKMTKGAQNINNKDYYFFDNGIQLRNALRRASNGYTYYYGLDGAMVKNAFVDFDDKHK
modifications: T4 C-terminal truncation of GTF0974
Take B3: the “GTF activity of strains: Acitivity” value is given as 47.2 U/mL in test [1] (Experiment Number 2) and 33.9 U/mL in test [1] (Experiment Number 3).
